Assay results reported in ChEMBL document CHEMBL2073883, “Interaction of docetaxel ("Taxotere") with human P-glycoprotein” (Jpn J Cancer Res, 1999).

Biological target: ATP-dependent translocase ABCB1 (Homo sapiens, UniProt P08183)
Assay: TP_TRANSPORTER: transepithelial transport (basal to apical) in MDR1-expressing LLC-PK1 cells
Assay type: functional, cell-based
Conditions: pig

Sequence of ATP-dependent translocase ABCB1 (P08183 whole entry): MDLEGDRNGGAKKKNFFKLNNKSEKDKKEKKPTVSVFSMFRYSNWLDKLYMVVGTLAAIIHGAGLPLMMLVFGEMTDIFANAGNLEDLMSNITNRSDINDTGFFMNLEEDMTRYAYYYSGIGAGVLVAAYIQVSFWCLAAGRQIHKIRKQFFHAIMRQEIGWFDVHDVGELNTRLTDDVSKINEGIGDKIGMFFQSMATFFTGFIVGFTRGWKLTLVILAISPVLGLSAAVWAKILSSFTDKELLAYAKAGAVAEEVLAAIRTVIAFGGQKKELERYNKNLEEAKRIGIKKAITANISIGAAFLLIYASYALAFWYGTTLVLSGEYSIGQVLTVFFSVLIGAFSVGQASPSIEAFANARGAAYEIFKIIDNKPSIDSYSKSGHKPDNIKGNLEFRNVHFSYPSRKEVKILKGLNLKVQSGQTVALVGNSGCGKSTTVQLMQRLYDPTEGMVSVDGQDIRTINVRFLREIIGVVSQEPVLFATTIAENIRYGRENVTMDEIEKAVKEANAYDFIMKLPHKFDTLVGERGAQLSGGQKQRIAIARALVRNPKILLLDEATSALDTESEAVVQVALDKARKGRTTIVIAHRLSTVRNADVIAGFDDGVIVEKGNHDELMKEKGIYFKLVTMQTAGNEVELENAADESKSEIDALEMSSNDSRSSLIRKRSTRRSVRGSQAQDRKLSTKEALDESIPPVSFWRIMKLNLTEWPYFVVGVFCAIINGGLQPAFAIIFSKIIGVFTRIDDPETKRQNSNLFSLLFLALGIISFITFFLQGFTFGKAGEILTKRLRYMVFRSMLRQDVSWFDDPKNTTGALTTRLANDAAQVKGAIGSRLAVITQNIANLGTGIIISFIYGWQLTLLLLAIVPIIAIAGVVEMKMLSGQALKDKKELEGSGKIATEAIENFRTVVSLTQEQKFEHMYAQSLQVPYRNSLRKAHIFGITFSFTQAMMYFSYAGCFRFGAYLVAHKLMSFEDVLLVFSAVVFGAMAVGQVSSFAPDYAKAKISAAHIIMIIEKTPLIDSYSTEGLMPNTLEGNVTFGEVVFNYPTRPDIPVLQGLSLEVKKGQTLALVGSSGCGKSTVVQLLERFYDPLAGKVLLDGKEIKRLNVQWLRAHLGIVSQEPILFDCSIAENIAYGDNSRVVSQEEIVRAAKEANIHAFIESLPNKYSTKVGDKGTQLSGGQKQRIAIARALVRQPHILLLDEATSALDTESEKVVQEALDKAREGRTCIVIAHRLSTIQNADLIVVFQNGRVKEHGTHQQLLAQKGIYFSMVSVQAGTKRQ

Activity: substrate [+]
Compound: CC(=O)O[C@@]12CO[C@@H]1C[C@H](O)[C@@]1(C)C(=O)[C@H](O)C3=C(C)[C@@H](OC(=O)[C@H](O)[C@@H](NC(=O)OC(C)(C)C)c4ccccc4)C[C@@](O)([C@@H](OC(=O)c4ccccc4)[C@H]21)C3(C)C.O.O.O [DOCETAXEL]
